Experiments:
[1] = tested on: SC-3; assay: Growth inhibition of androgen-dependent clonal cell line SC-3, derived from Shionogi carcinoma 115; assay type: functional, Mus musculus; parameters: unit not given here
[2] = tested on: HL-60; assay: Production of TNF-alpha by HL-60 cells in the presence of 50 nM okadaic acid with 300 nM test compound
[3] = tested on: HL-60; assay: Production of TNF-alpha in HL-60 cells in the presence of 50 nM okadaic acid with 30 uM test compound

SMILES	No. of cells [1]	Production [2]	Production [3]
C[C@@H](c1ccccc1)N1C(=O)c2c(F)c(F)c(F)c(F)c2C1=O	16	2%	–
C[C@H](c1ccccc1)N1C(=O)c2c(F)c(F)c(F)c(F)c2C1=O	3	70%	–
O=C1c2c(F)c(F)c(F)c(F)c2C(=O)N1CC1Cc2ccccc2C1	61	43%	–
C[C@H](C1CCCCC1)N1C(=O)c2c(F)c(F)c(F)c(F)c2C1=O	5	65%	–
C[C@@H](c1cccc2ccccc12)N1C(=O)c2c(F)c(F)c(F)c(F)c2C1=O	9	2%	–
O=C1c2ccccc2C(=O)N1CC1Cc2ccccc2C1	56	–	50%
CC(=O)C(CN1C(=O)c2ccccc2C1=O)C(C)=O	49	–	72%
O=C1c2ccccc2C(=O)N1Cc1c(Cl)cccc1Cl	69	–	39%
C[C@H](c1cccc2ccccc12)N1C(=O)c2c(F)c(F)c(F)c(F)c2C1=O	14	101%	–
C[C@@H](C1CCCCC1)N1C(=O)c2c(F)c(F)c(F)c(F)c2C1=O	2	10%	–
O=C1c2c(F)c(F)c(F)c(F)c2C(=O)N1Cc1c(Cl)cccc1Cl	45	76%	–
O=C1c2ccccc2C(=O)N1CNc1ccccc1	91	–	73%
CC(C)C(=O)Nc1ccc([N+](=O)[O-])c(C(F)(F)F)c1 [FLUTAMIDE]	66	–	103%
